# Ends that are not written are not given here.
# System: SIRT6
# Experiment: SIRT6 expression in normal human epidermal keratinocytes by immunohistochemistry
# Format: cell-based
# Conditions: 1% and 3% of a 50 ppm peptide solution, FIG. 2
# Procedure: SIRT6 is a member of the conserved family of sirtuin proteins which are associated with metabolism and longevity. SIRT6 is a histone 3, lysine 9 (H3K9) deacetylase and is primarily involved in DNA repair and telomere stability. The peptide of (SEQ ID No. 5) Gly-Ala-Gly-Val-Ser-Ala-Glu-NH2 was tested for Sirt6 stimulating activity as follows.
# Normal Human Epidermal Keratinocytes p3
# • 1. Cells were plated into 4 well chamber slides @ 10,000 cells/chamber and incubated at 37° C., 5% CO2 & 95% humidity for 24 hours. • 2. The peptide of SEQ ID No. 5 was prepared as follows: • 2.1. Dissolved 5 mg peptide in 5 ml medium to make a 1000 ppm stock solution. • 2.2. Diluted the stock solution to 50 ppm by combining 400 μl 1000 ppm stock solution with 7.6 ml medium • 2.3. Prepared a 3% of the 50 ppm solution by combining 1.5 ml 50 ppm stock with 48.5 ml medium • 2.4. Prepared a 1% of the 50 ppm solution by combining 0.5 ml 50 ppm stock with […] medium • 3. Placed treatments (500 μl per chamber) on cells for 48 h, refreshing treatments after 24 h • 4. Aspirated media and replaced with the appropriate treatments. Incubated for 1 & 6 hours. • 5. Performed immunohistochemistry on the cells
# • 6. Prepared Wash Buffer (0.2% Triton X-100):
# 6.1. Add 1 mL of Triton X-100 to 499 ml of 1×PBS • 7. Prepared Block Solution (1%/10 mg/ml BSA)
# 7.1. Added 5 g of BSA into a final volume of 500 ml of 1×PBS • 8. […]
substance,measurement,value
Gly-Ala-Gly-Val-Ser-Ala-Glu-NH2 (GAGVSAE-NH2) [SEQ ID No. 5],SIRT6 expression,dose dependent increase in SIRT6 expression
